Source: patent publication US20140275197A1, “ALPHA-2 ADRENERGIC AGONIST FOR TREATING INTRAOCULAR PRESSURE AND OCULAR DISEASES THROUGH INTRAVITREAL AND INTRACAMERAL ROUTES” (priority 2013, published 2014)
Entries after “also recorded” stand apart in the source; their conditions may differ.

Experiments:
[1] = test system: dutch belted rabbits; assay: Intraocular pressure lowering after bolus intracameral (IC) injection at equimolar concentration; type: in vivo, rabbit
From the text: Due to the chemical similarity and the pharmacokinetics profile of brimonidine, 4-bromo-N-imidazolidin-2-ylidene-1-H-benzimidazol-5-amine and dexmedetomidine, it would be expected for these molecules to have a similar behavior following intravitreal bolus injection into the back of the eye.

[2] = in vivo
[3] = rat, in vivo, po; cited from earlier work
[4] = test system: dutch belted rabbits; assay: Intraocular pressure lowering after intravitreal (IVT) injection at equimolar concentration; type: in vivo, rabbit
[5] = cited from earlier work
[6] = increasing amount of brimonidine

Row | Compound | potency versus brimonidine and dexmedetomidine ([1]; administered intracamerally at equimolar concentration, normotensive rabbits) | IOP decrease compared with brimonidine and dexmedetomidine ([1]; bolus intracameral injection, equimolar concentration, rabbits) | level in the systemic circulation [2] | time for which the level in the aqueous humor is maintained [2] [h] | amount found in urine [3] | IOP decrease compared with brimonidine and dexmedetomidine [4] | clearance from the aqueous humor ([5]; following topical dosing) | passage through cornea and sclera ([5]; following topical dosing) | effect of increasing the amount on half life in the aqueous humor [5, 6] | effect of increasing the amount on systemic exposure [5, 6]
1 | Brc1c(N=C2NCCN2)ccc2[nH]cnc12 [4-bromo-N-imidazolidin-2-ylidene-1-H-benzimidazol-5-amine] | at least 50 fold | more efficacious at decreasing lop than brimonidine and dexmedetomidine; also recorded: outperforms brimonidine; also recorded: more effective than brimonidine and dexmedetomidine | undetectable levels | ≥ 8 | trace amounts | more efficacious at decreasing IOP than brimonidine and dexmedetomidine; also recorded: outperforms brimonidine; also recorded: more potent and efficacious than brimonidine |  |  |  | 
2 | Nc1cc(Cl)c(N=C2NCCN2)c(Cl)c1 [apraclonidine, 2,6-dichloro-N-imidazolidin-2-ylidene-benzene-1,4-diamine] |  |  |  |  |  |  | rapidly cleared |  |  | 
3 | Brc1c(NC2=NCCN2)ccc2nccnc12 [brimonidine, (5-bromo-quinoxalin-6-yl)-imidazolidin-2-ylidene-amine] |  |  |  |  |  |  | rapidly cleared | readily pass through the cornea and sclera | does not improve its half life | increased systemic exposure
